Source: PubChem BioAssay AID248 (DTP/NCI, 2004)
Where “and” joins values, the source holds several entries; their conditions need not be identical. Equal entries are not always repeated. Toxic doses and inconclusive results are not listed. Rule as the data show it: active = T/C of 150% or more; inactive = T/C below 125%.

Test system: L1210 leukemia ip in BDF1 mice, survival T/C
Assay: NCI In Vivo Anticancer Drug Screen. Data for tumor model L1210 Leukemia (intraperitoneal) in B6D2F1 (BDF1) mice
Conditions: endpoint: mean survival time, higher = longer survival
Method in brief: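 Ratio derived from survival: compound-dosed mice over vehicle-dosed mice, all bearing a transplantable tumor.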

[1] = dose: 100.0 mg/kg/injection, schedule: Q04DX003 (ip), vehicle: saline with Tween-80
[2] = dose: 200.0 mg/kg/injection, schedule: Q04DX003 (ip), vehicle: saline with Tween-80
[3] = dose: 400.0 mg/kg/injection, schedule: Q04DX003 (ip), vehicle: saline with Tween-80
[4] = dose: 50.0 mg/kg/injection, schedule: Q04DX002 (ip), vehicle: Klucel (hydroxypropylcellulose) (HPC)
[5] = dose: 100.0 mg/kg/injection, schedule: Q04DX002 (ip), vehicle: Klucel (hydroxypropylcellulose) (HPC)
[6] = dose: 50.0 mg/kg/injection, schedule: Q01DX001 (ip), vehicle: saline
[7] = dose: 100.0 mg/kg/injection, schedule: Q01DX001 (ip), vehicle: saline
[8] = dose: 200.0 mg/kg/injection, schedule: Q01DX001 (ip), vehicle: saline
[9] = dose: 400.0 mg/kg/injection, schedule: Q01DX001 (ip), vehicle: saline
[10] = dose: 50.0 mg/kg/injection, schedule: Q01DX009 (ip), vehicle: saline
[11] = dose: 100.0 mg/kg/injection, schedule: Q01DX009 (ip), vehicle: saline
[12] = dose: 200.0 mg/kg/injection, schedule: Q04DX002 (ip), vehicle: Klucel (hydroxypropylcellulose) (HPC)
[13] = dose: 100.0 mg/kg/injection, schedule: Q04DX003 (ip), vehicle: Klucel (hydroxypropylcellulose) (HPC)
[14] = dose: 200.0 mg/kg/injection, schedule: Q04DX003 (ip), vehicle: Klucel (hydroxypropylcellulose) (HPC)
[15] = dose: 400.0 mg/kg/injection, schedule: Q04DX003 (ip), vehicle: Klucel (hydroxypropylcellulose) (HPC)

Measured: T/C

c1ccc([CH2][Ge]([c]2ccccc2)([c]2ccccc2)[c]2ccccc2)cc1
inactive: dose: 25.6 mg/kg/injection, schedule: Q04DX002 (ip), vehicle: saline with Tween-80 89 % of control | dose: 64.0 mg/kg/injection, schedule: Q04DX002 (ip), vehicle: saline with Tween-80 93 % of control | [1] 104 % of control | dose: 160.0 mg/kg/injection, schedule: Q04DX002 (ip), vehicle: saline with Tween-80 89 % of control | [2] 96 % of control | dose: 400.0 mg/kg/injection, schedule: Q04DX002 (ip), vehicle: saline with Tween-80 89 % of control | [3] 102 % of control

N#C/C(=C\c1cccn1Cc1cc2c(cc1[N+](=O)[O-])OCO2)C(N)=O
inactive: dose: 25.0 mg/kg/injection, schedule: Q04DX002 (ip), vehicle: Klucel (hydroxypropylcellulose) (HPC) 96 % of control | [4] 96 % of control | [5] 96 % of control

O=c1ssc(=Nc2ccccc2)n1-c1ccccc1
inactive: dose: 100.0 mg/kg/injection, schedule: Q04DX003 (ip), vehicle: gum acacia 103 % of control | dose: 200.0 mg/kg/injection, schedule: Q04DX003 (ip), vehicle: gum acacia 104 % of control | dose: 400.0 mg/kg/injection, schedule: Q04DX003 (ip), vehicle: gum acacia 101 % of control

O=S(=O)(Cc1ccc(Br)cc1)Cc1ccc(Br)cc1
inactive: [6] 102 % of control | [7] 90 % of control | [8] 88 % of control | [9] 90 % of control

Nc1csc2cccc[n+]12
inactive: dose: 25.0 mg/kg/injection, schedule: Q04DX003 (ip), vehicle: saline 100 % of control | [7] 96 % of control

Cc1ccc(O)c(CCCO)c1
inactive: [6] 97 % of control | [7] 105 % of control | [8] 94 % of control

N#CCOC(=O)c1ccc[nH]1
inactive: dose: 10.0 mg/kg/injection, schedule: Q01DX001 (ip), vehicle: acetone 101 % of control | dose: 20.0 mg/kg/injection, schedule: Q01DX001 (ip), vehicle: acetone 100 % of control | dose: 40.0 mg/kg/injection, schedule: Q01DX001 (ip), vehicle: acetone 97 % of control

COc1ccc(N2CSC(=S)N(c3ccc(OC)cc3)C2)cc1
inactive: dose: 25.0 mg/kg/injection, schedule: Q01DX009 (ip), vehicle: saline 96 % of control | [10] 93 % of control | [11] 95 % of control | dose: 400.0 mg/kg/injection, schedule: Q04DX003 (ip), vehicle: saline 91 % of control

CN(N)Cc1cccc(O)c1
inactive: [10] 101 % of control | [11] 104 % of control | dose: 200.0 mg/kg/injection, schedule: Q01DX009 (ip), vehicle: saline 101 % of control

CCCCCC(=O)N1CCCCC1CC (centres undefined)
inactive: [5] 92 % of control | [12] 92 % of control

Cc1ccc(S(=O)(=O)N(CCCc2ccccc2)c2ccc(C(=O)NC(CCC(=O)O)C(=O)O)cc2)cc1 (centres undefined)
inactive: dose: 75.0 mg/kg/injection, schedule: Q01DX001 (ip), vehicle: gum acacia 101 % of control | dose: 150.0 mg/kg/injection, schedule: Q01DX001 (ip), vehicle: gum acacia 107 % of control | dose: 300.0 mg/kg/injection, schedule: Q01DX001 (ip), vehicle: gum acacia 93 % of control

Cc1cc(C)c2c(c1)C/C2=N/N=C1/Cc2cc(C)cc(C)c21
inactive: [4] 120 % of control | [5] 100 % of control | [12] 92 % of control

CC1=NN(c2ccccc2)C(=O)C1
inactive: [6] 94 % of control | dose: 100.0 mg/kg/injection, schedule: Q01DX001 (ip), vehicle: saline with Tween-80 104 % of control | [7] 94 % of control | dose: 200.0 mg/kg/injection, schedule: Q01DX001 (ip), vehicle: saline with Tween-80 101 % of control | [8] 90 % of control | dose: 400.0 mg/kg/injection, schedule: Q01DX001 (ip), vehicle: saline with Tween-80 101 % of control | [9] 102 % of control

C=CCc1ccc(OC(=O)Nc2ccc(S(=O)(=O)N(C)C)cc2)c(OC)c1
inactive: [7] 94 % of control | [8] 91 % of control | [9] 91 % of control

CCOC(=O)c1cc(N(CCOS(C)(=O)=O)CCOS(C)(=O)=O)ccc1N
inactive: dose: 1.8 mg/kg/injection, schedule: Q01DX015 (ip), vehicle: saline 95 % of control | dose: 2.0 mg/kg/injection, schedule: Q01DX015 (ip), vehicle: saline 89 % of control | dose: 3.0 mg/kg/injection, schedule: Q01DX015 (ip), vehicle: saline 106 % of control | dose: 5.0 mg/kg/injection, schedule: Q01DX001 (ip), vehicle: saline 116 % of control | dose: 7.0 mg/kg/injection, schedule: Q01DX015 (ip), vehicle: saline 90 % of control

O=C(Nc1ccccc1F)C(F)(F)F
inactive: [13] 103 % of control | [14] 105 % of control | [15] 97 % of control

CCC(=O)n1ncc2ccc([N+](=O)[O-])cc21
inactive: [1] 103 % of control | [2] 88 % of control | [3] 93 % of control

C=CCC(Cc1ccccc1)NCC1CC1 (centres undefined)
inactive: dose: 6.25 mg/kg/injection, schedule: Q04DX002 (ip), vehicle: saline with Tween-80 114 % of control | dose: 12.5 mg/kg/injection, schedule: Q04DX002 (ip), vehicle: saline with Tween-80 104 % of control | dose: 25.0 mg/kg/injection, schedule: Q04DX002 (ip), vehicle: saline with Tween-80 111 % of control

O=c1cc[nH]c(=O)o1
inactive: dose: 63.0 mg/kg/injection, schedule: Q01DX009 (ip), vehicle: water 89 % of control

NC(N)=N/N=C\c1ccc(/C=N/N=C(N)N)cc1
inactive: dose: 60.0 mg/kg/injection, schedule: Q01DX Z (oral), vehicle: saline 103 % of control | dose: 120.0 mg/kg/injection, schedule: Q01DX Z (oral), vehicle: saline 108 % of control | dose: 240.0 mg/kg/injection, schedule: Q01DX Z (oral), vehicle: saline 101 % of control | dose: 480.0 mg/kg/injection, schedule: Q01DX Z (oral), vehicle: saline 108 % of control

Nc1ccc2c(c1)C(=O)c1cc(N)c(Br)cc1-2
inactive: dose: 100.0 mg/kg/injection, schedule: Q01DX001 (ip), vehicle: carboxymethylcellulose (CMC) 93 % of control | dose: 200.0 mg/kg/injection, schedule: Q01DX001 (ip), vehicle: carboxymethylcellulose (CMC) 95 % of control | dose: 400.0 mg/kg/injection, schedule: Q01DX001 (ip), vehicle: carboxymethylcellulose (CMC) 98 % of control

CC(=O)Nc1ccc(S(=O)(=O)NC(C)=O)cc1
inactive: dose: 100.0 mg/kg/injection, schedule: Q01DX001 (ip), vehicle: other 94 % of control | dose: 100.0 mg/kg/injection, schedule: Q01DX009 (ip), vehicle: saline with Tween-80 108 % of control | dose: 200.0 mg/kg/injection, schedule: Q01DX001 (ip), vehicle: other 96 % of control | dose: 400.0 mg/kg/injection, schedule: Q01DX001 (ip), vehicle: other 107 % of control | dose: 400.0 mg/kg/injection, schedule: Q01DX009 (ip), vehicle: saline with Tween-80 97 % of control

COc1nccc(SC)n1
inactive: dose: 95.0 mg/kg/injection, schedule: Q04DX003 (ip), vehicle: Klucel (hydroxypropylcellulose) (HPC) 110 % of control | [13] 107 % of control and 91 % of control | dose: 135.0 mg/kg/injection, schedule: Q04DX003 (ip), vehicle: Klucel (hydroxypropylcellulose) (HPC) 105 % of control | [14] 96 % of control and 97 % of control

Cc1c(C)c2cc3ccc(Cl)cc3nc2c2ccccc12
inactive: [13] 103 % of control | [14] 105 % of control | [15] 110 % of control
